Where two headings read alike, the source gives them in different places.
What was measured:
[1] = system: spontaneous hypertensive rat; assay: Antihypertensive activity in the spontaneous hypertensive rat, indirect tail cuff method; format: in vivo; conditions: at 50 mg/kg, p.o.; treated orally for three days, measured on the third day
Method: Compounds of the present invention are also useful as antihypertensive agents due to their ability to depress blood pressure in mammals. Antihypertensive activity is measured in the spontaneous hypertensive rat by the indirect tail cuff method described in "Methods in Pharmacology", A. Schwartz, Ed., Vol. I, Appleton-Century Crofts, New York, N.Y., 1971, p. 135. In this procedure a group of five animals are treated orally for three days with the test compound in relation to a control group of the same number. The drop in blood pressure is measured on the third day following administration. The antihypertensive activities of some of the compounds, expressed as a decrease in mean arterial blood pressure (in mm Hg), are given in Table 2.

[2] = system: 2-phenyl-1,4-benzoquinone-induced writhing; assay: 2-phenyl-1,4-benzoquinone-induced writhing test in mice (analgesic activity, phenylquinone writhing); format: in vivo; conditions: Mus musculus, sc, read-out: ED50 (Analgesic Activity, Phenylquinone Writhing)
From the text: Compounds of this invention having formula I are useful as analgesic agents due to their ability to alleviate pain in mammals. […] Exptl. Biol. Med. […], 729 (1957)].

α1-adrenergic receptor = assay: [3H]-WB4101: α1-adrenergic receptor binding in rat brain; conditions: rat brain membranes minus cerebella, 0.5 nM 3H-WB4101, pH 7.7, 15 minutes; read-out: [3H]-WB4101: α1-Adrenergic Receptor (IC50) Antagonist Activity
Method: RECEPTOR BINDING IN RAT BRAIN
This in vitro [^3 H]-WB4101 receptor binding assay quantitates the primary blood pressure lowering effects through α1 -receptor blockade. […] WB4101 labels an antagonist binding site on the α1 -adrenoceptor, since it is preferentially displaced by antagonists while α-noradrenergic agonists preferentially displace the ^3 H-agonists
57.2 g Tris HCl 16.2 g Tris base q.s. to 1 liter (0.5M Tris buffer, pH 7.7 at 25° C.).
Make a 1:10 dilution in distilled H2 O (0.05M Tris Buffer, pH 7.7)
[Phenoxy-3-^3 H(N)]-WB4101, (2-(2,6-dimethoxyphenoxyethyl)aminomethyl-1,4-benzodioxane, (20-25 Ci/mmol) is obtained from New England Nuclear.
L-norepinephrine bitartrate is obtained from Sigma Chemical Co.
A 10 mM stock solution of norepinephrine is made up in 0.01N HCl and 20 micro liter added to three tubes to determine nonspecific binding. This yields a final concentration of 100 micro liter in the assay.
For most assays, a 1 mM stock solution is made up in a suitable solvent and serially diluted, such that the final concentration in the assay ranges from 10^-5 to 10^-8 M. Seven concentrations are usually used for each assay.
Male Wistar rats (100-150 g) are killed by decapitation and their brains rapidly removed. […]
Sample tubes are kept on ice for additions, then vortexed and incubated for 15 minutes at 15° C. […] The filters are counted in 10 ml of liquid scintillation cocktail. […]

| SMILES | Pressure Drop (decrease in mean arterial blood pressure) [1] | ED50 ([2]; mice) | IC50 (α1-adrenergic receptor) | ED50 [2] |
| --- | --- | --- | --- | --- |
| COc1cc2onc(CCCN3CCN(c4ccccc4OC)CC3)c2cc1OC [3-[3-[4-(2-methoxyphenyl)-1-piperazinyl]propyl]-5,6-dimethoxy-1,2-benzisoxazole] | 68 mmHg | 1.7 mg/kg |  |  |
| COc1cc2onc(CCCN(C)CCc3ccccc3)c2cc1OC.O=C(O)C(=O)O [N-methyl-N-(2-phenylethyl)-5,6-dimethoxy-1,2-benzisoxazole-3-propanamine oxalate] |  | 13.6 mg/kg | 67 nM |  |
| COc1cc2onc(CCCNCCc3ccc(F)cc3)c2cc1OC.Cl [N-[2-(4-fluorophenyl)ethyl]-5,6-dimethoxy-1,2-benzisoxazole-3-propanamine hydrochloride] |  | 3.8 mg/kg |  |  |
| CC(C)=CCN1CCC2(C)c3cc(O)ccc3CC1C2C (stereo not drawn) [pentazocine, reference compound] |  |  |  | 1.3 mg/kg |
| COc1cc2onc(CCCNCCc3ccccc3)c2cc1OC.Cl [N-(2-phenylethyl)-5,6-dimethoxy-1,2-benzisoxazole-3-propanamine hydrochloride] | 32 mmHg |  | 83 nM |  |
| COc1ccc([C@@H]2Sc3ccccc3N(CCN(C)C)C(=O)[C@@H]2OC(C)=O)cc1 [Diltiazem, reference compound] | 39 mmHg |  |  |  |

Reference: patent US4980365A, “N-substituted-5,6-dimethoxy-1,2-benzisoxazole-3-propanamine and related compounds as analgesic and hypotensive agents” (Hoechst-Roussel Pharmaceuticals Inc., priority 1987, dated 1990)
